Results taken from patent US11679065B2, “Compositions with sulfur having enhanced efficacy and aesthetics” (The Procter & Gamble Company, priority 2020, dated 2023).

Columns and labels:
[1] = tested on: Malassezia; assay: Minimal inhibitory concentration of sulfur (known value); format: cell-based; conditions: generally accepted MIC, gray box in FIGS. 1-4
Procedure: A dissolution and diffusion model is utilized to help dimension sulfur solubility in sebum over a 24 hour period. The model predicts where sulfur concentration will rise above the minimal inhibitory concentration (MIC is known to be in the range of 10-50 ppm for sulfur), for the fungus that causes dandruff (Malassezia). The model factors in sulfur dissolution varying sebum thickness and sebum production rate over the 24 hour period as well as a loss term for sulfur migration into the scalp/stratum corneum. FIGS. 1-4) show simulation outputs for mean sulfur particles sizes, 2, 34, 100 and 150 micron sulfur particles respectively wherein each graph is a compilation of curves representing variations in initial sebum thickness and production rate. The gray box in each figure represents a range of sulfur concentrations that encompass the generally accepted MIC (log 10(MIC) range is 1-1.7). It is observed from the simulations that as particle size increases, the approximate number of hours that sulfur concentration is above the MIC expands until the particle size of about 150 microns, wherein the dissolution of sulfur in sebum becomes the rate limiting step and the concentration of sulfur never exceeds the MIC needed for a dandruff benefit.

[2] = tested on: Malassezia; conditions: fungus that causes dandruff (Malassezia); known range; cited from earlier work

- log 10(MIC) range [1]: 1-1.7
SMILES: S1SSSSSSS1 [Sulfur]
- minimal inhibitory concentration (MIC) [2]: 10-50 ppm
